Results taken from patent publication US11298412B2, “Sphingoid compounds for prophylaxis and/or therapy of coronaviridae infection” (priority 2020, dated 2022).
Entries after “also recorded” stand apart in the source; their conditions may differ.

What was measured:
recombinant ACE2 = biological target: T1, recombinant ACE2 (Homo sapiens, UniProt Q9BYF1); experiment: Binding of lipids to immobilized recombinant ACE2; conditions: sphingosine at 2 μM
T1 construct: purchased Abcam ab273687

pp-VSV-SARS-CoV-2 = experiment: Adhesion of pp-VSV-SARS-CoV-2 on Vero cells, flow cytometry with anti-spike S1; type: cell-based; conditions: 20 minutes infection in presence of lipid
Hela cells = experiment: Effect of sphingosine alone on Hela cells, Trypan Blue cell death; conditions: uninfected Hela cells; 10 μM or 20 μM
rhinovirus 2 (RV2) = experiment: RV2 infection of freshly isolated human epithelial cells, Hela cytotoxicity readout; type: cell-based; conditions: 10 μM or 20 μM, 24 hrs
Experimental: (§1) 10^4 PFU of Rhinovirus 2 or 14 (RV2, RV14) were incubated with freshly isolated human epithelial cells for 24 hrs in the presence of 10 μM or 20 μM sphingosine (SPH) or the corresponding concentration of the solvent octylglucopyranoside (OGP), the cells were pelleted, supernatants completely removed, the cell pellets resuspended in PBS and added to Hela cells. Cells were incubated for 3 days and cytotoxicity as measurement for virus titers was determined. Shown is the mean±SD, n=4, *p<0.001 ANOVA.

pp-VSV-SARS-CoV-2 spike = type: cell-based
[1] = biological target: T2, receptor-binding domain of spike protein / ACE2 (Homo sapiens, UniProt Q9BYF1); experiment: Binding of Fc-ACE2 to RBD-spike immobilized on Ni-agarose, western blot; conditions: RBD immobilized on Ni2+-agarose; Fc-ACE2 with 1 μM or 2 μM sphingosine
T2 construct: purchased Abcam (Fc-ACE2); Sino Biologicals (RBD-spike) ab273687 (Fc-ACE2); MA FE2702B, #40150-R007 (as printed for RBD-spike)

[2] = tested on: human nasal epithelial cells; experiment: Toxicity on human nasal epithelial cells; conditions: as per the Vero cell studies
[3] = biological target: T3, receptor binding domain of spike S1 / ACE2 (Homo sapiens, UniProt Q9BYF1); experiment: Binding of recombinant RBD of spike S1 to immobilized Fc-ACE2, western blot
T3 construct: purchased Abcam (Fc-ACE2); Sino Biologicals (RBD-spike) ab273687 (Fc-ACE2); MA FE2702B, #40150-R007 (as printed for RBD-spike)

[4] = tested on: lymphocytic choriomeningitis virus (LCMV); type: cell-based, LCMV strain WE
[5] = biological target: pp-VSV-SARS-CoV-2 / recombinant ACE2 (Homo sapiens, UniProt Q9BYF1); experiment: Binding of pp-VSV-SARS-CoV-2 to immobilized recombinant ACE2, Vero infection with supernatant; conditions: 1 or 2 μM sphingosine; immobilized Fc-ACE2
[6] = tested on: rhinovirus strain 2 (RV2); experiment: Intranasal RV2 infection of wild-type mice, Hela cell death bioassay of nasal bone; type: in vivo; conditions: 10 μL of 100 μM intranasal 10 min before or 1, 4, 8 hrs after infection, 10^3 PFU, sacrificed after 24 hrs
Experimental: Mice were infected with 10^3 PFU rhinovirus strain 2 (RV2) in 10 μL PBS. The virus was applied directly into the nose using a blunt ended, plastic coated 30 g needle, that was inserted into the nose approximately 2 mm. Sphingosine (SPH) was applied into the nose of the wild-type mice at a concentration of 100 μM solution in PBS in a volume of 10 μL. Sphingosine was applied either 10 min prior to rhinovirus infection (b.i.) or 1 hr, 4 hrs and 8 hrs after the infection (a.i.). Controls received the solvent, i.e. octylglucopyranoside (OGP) at the same concentration than used when sphingosine was applied, or were left untreated, but infected. Solutions were applied as in 3.2. Mice were sacrificed after 24 hrs, the nasal bone was removed and incubated for 4 days with Hela cells in a 24 well plate. If the nasal epithelial cells are infected, rhinovirus will be released due to the cytopathic effect of the virus and the in vivo infection can then be determined and quantified by measuring cell death of Hela cells as a bioassay. To this end, dead cells were collected, adherent cells were trypsinized, the fractions were combined, washed twice in H/S (20 mM HEPES, 132 mM NaCl, 5 mM KCl, 1 mM CaCl2), 0.7 mM MgCl2, 0.8 mM MgSO4, pH 7.4), stained with Trypan Blue (0.2% final concentration) and dead cells were counted in aliquots of 500 cells as above. […]

rhinovirus 14 (RV14) = experiment: RV14 infection of freshly isolated human epithelial cells, Hela cytotoxicity readout; type: cell-based; conditions: 10 μM or 20 μM, 24 hrs
Experimental: as §1

[7] = tested on: epithelial cells of the nose; experiment: Toxicity of intranasal sphingosine on nasal epithelial cells of mice, Trypan Blue; type: in vivo; conditions: wild-type mice; 10 μL of 10 μM or 100 μM intranasal; 8 hours or 24 hours
Experimental: Sphingosine was applied into the nose of wild-type mice as in 3.2. 10 μL of a 10 μM or a 100 μM sphingosine (SPH) solution was administered into the nostrils of wild-type mice. Controls received the solvent, i.e. octylglucopyranoside at the same concentration used when sphingosine was applied, or were left untreated. Mice were anesthetized prior to application of sphingosine. Mice were sacrificed after 8 hours or 24 hours, the nasal bone was removed and incubated in Trypsin solution for 10 min to release and isolate epithelial cells. Cells were washed twice in H/S (20 mM HEPES, 132 mM NaCl, 5 mM KCl, 1 mM CaCl2), 0.7 mM MgCl2, 0.8 mM MgSO4, pH 7.4), stained with Trypan Blue (0.2% final concentration) and dead cells were counted in aliquots of 500 cells. Given is the percentage of dead cells±SD from 4 independent experiments each; *p<0.05, ANOVA.

T1 sequence (Q9BYF1 18-805): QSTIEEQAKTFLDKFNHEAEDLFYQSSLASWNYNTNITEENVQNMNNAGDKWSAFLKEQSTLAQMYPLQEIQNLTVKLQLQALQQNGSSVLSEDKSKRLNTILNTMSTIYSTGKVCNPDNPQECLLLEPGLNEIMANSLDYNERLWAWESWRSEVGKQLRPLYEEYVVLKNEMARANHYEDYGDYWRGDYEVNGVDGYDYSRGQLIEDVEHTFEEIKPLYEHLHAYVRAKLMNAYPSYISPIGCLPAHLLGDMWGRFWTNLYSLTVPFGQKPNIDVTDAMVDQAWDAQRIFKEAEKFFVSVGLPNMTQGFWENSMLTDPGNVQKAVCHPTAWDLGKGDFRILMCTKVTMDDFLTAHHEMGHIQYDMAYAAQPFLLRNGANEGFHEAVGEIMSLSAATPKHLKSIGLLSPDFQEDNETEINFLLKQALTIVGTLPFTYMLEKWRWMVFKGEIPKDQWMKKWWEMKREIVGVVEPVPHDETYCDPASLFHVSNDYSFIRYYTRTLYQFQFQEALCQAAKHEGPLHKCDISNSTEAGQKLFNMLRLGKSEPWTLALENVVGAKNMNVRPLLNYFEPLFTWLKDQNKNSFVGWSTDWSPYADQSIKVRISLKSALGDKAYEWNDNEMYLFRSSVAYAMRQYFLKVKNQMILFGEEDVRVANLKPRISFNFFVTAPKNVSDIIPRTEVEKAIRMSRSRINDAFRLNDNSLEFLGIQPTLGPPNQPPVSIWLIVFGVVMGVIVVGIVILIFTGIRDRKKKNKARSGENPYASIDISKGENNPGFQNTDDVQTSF
T3 sequence (Q9BYF1 18-740): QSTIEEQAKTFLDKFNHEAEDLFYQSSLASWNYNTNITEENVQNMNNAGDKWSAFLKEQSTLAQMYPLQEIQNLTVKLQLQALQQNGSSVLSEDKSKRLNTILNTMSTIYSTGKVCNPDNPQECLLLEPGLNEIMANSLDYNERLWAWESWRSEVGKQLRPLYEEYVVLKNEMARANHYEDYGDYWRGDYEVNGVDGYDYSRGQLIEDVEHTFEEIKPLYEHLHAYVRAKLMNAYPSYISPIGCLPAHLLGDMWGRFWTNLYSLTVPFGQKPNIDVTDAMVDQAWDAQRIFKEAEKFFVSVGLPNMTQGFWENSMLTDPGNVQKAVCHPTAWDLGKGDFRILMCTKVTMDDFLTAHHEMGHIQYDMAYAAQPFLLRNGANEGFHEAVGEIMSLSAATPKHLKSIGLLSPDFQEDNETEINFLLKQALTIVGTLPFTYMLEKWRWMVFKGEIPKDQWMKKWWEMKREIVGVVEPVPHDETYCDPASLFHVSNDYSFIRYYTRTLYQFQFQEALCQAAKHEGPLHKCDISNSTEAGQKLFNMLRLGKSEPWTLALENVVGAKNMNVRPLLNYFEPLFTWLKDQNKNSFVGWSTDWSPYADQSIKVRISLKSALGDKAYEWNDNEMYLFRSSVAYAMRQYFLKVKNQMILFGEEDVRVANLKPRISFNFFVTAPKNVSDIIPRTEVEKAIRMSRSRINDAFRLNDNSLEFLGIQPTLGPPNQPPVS
pp-VSV-SARS-CoV-2 / recombinant ACE2, sequence (Q9BYF1 18-740): as above
T2 sequence (Q9BYF1 18-740): as above

CCCCCCCCCCCCC/C=C/[C@@H](O)[C@@H](N)CO [sphingosine, (2S,3R,4E)-2-amino-4-octadecene-1,3-diol]
binding of lipid to immobilized recombinant ACE2 (beads) (recombinant ACE2): revealed a binding of sphingosine to ACE2; also recorded: selectively couples to beads with bound recombinant ACE2; also recorded: binds the ACE2 receptor | binding of pp-VSV-SARS-CoV-2 to the cell surface (pp-VSV-SARS-CoV-2): prevented binding of pp-VSV-SARS-CoV-2 to the cell surface | effect of sphingosine itself on the cells (percentage of dead cells) (Hela cells): no effect on the cells | infection of human epithelial cells by RV2 (rhinovirus 2 (RV2)): abrogates infection of human epithelial cells; also recorded: prevents infection of freshly isolated human nasal epithelial cells | effect on infection of Vero epithelial cells with pp-VSV-SARS-CoV-2 (pp-VSV-SARS-CoV-2 spike): marked effect | infection of Vero cells by SARS-CoV-2 (pp-VSV-SARS-CoV-2 spike): prevents infection of Vero cells by SARS-CoV-2 | reduction of the infection of Vero epithelial cells with pp-VSV-SARS-CoV-2 (pp-VSV-SARS-CoV-2 spike): more than 90% | interaction of the receptor-binding domain of spike protein with ACE2 [1]: abolished the interaction of the receptor-binding domain of spike protein with ACE2 | toxic effects on nasal epithelial cells [2]: no toxic effects on nasal epithelial cells; also recorded: without negative effects on the cells | binding of recombinant receptor binding domain of spike S1 to ACE2 ([3]; immobilized Fc-ACE2 pre-incubated with 1 μM or 2 μM sphingosine): prevented binding of recombinant receptor binding domain of spike S1 to ACE2 | binding of the recombinant RBD of spike S1 to ACE2 ([3]; immobilized Fc-ACE2 pre-incubated with 2 μM sphingosine): reduced binding of the recombinant RBD of spike S1 to ACE2 | propagation of LCMV (infectious LCMV particles in the supernatant) [4]: reduced propagation of LCMV; also recorded: inhibits the propagation of LCMV | binding of intact pp-VSV-SARS-CoV-2 to recombinant ACE2 [5]: abrogated binding of intact pp-VSV-SARS-CoV-2 to recombinant ACE2; also recorded: prevents binding of SARS-CoV-2 spike protein to the ACE2 receptor | infection with RV2 in vivo (percentage of dead Hela cells) [6]: prevented; also recorded: prevents infection by RSV2 | infection of human epithelial cells by RV14 (rhinovirus 14 (RV14)): abrogates infection of human epithelial cells; also recorded: prevents infection of freshly isolated human nasal epithelial cells | toxic effects on nasal epithelial cells (percentage of dead cells) [7]: no toxic effects on epithelial cells of the nose; also recorded: no toxic side effects
